# Data taken from ChEMBL document CHEMBL4325903, “N-Substituted aminoquinoline-pyrimidine hybrids: Synthesis, in vitro antimalarial activity evaluation and docking studies” (Eur J Med Chem, 2019).
# Active and inactive are the calls of the source. No cut-off for these calls is given here.
# Tests used:
# [1] = Selectivity index, ratio of IC50 for cytotoxicity against African green monkey Vero cells to IC50 for chloroquine-resistant Plasmodium falciparum W2; type: toxicity, cell-based; details: read-out: Ratio IC50
# Vero [2] = assay: Cytotoxicity against African green monkey Vero cells up to 10 uM after 48 hrs by neutral red assay; type: cell-based; details: chlorocebus sabaeus
# Plasmodium falciparum [3] = assay: Antimalarial activity against chloroquine-sensitive Plasmodium falciparum D6 infected in RBC after 72 hrs by LDH release assay; type: functional, organism-based; details: D6, 72 h
# Plasmodium falciparum [4] = assay: Antimalarial activity against chloroquine-resistant Plasmodium falciparum W2 infected in RBC after 72 hrs by LDH release assay; type: functional, organism-based; details: W2, 72 h
# [5] = Selectivity index, ratio of IC50 for cytotoxicity against African green monkey Vero cells to IC50 for chloroquine-sensitive Plasmodium falciparum D6; type: toxicity, cell-based; details: read-out: Ratio IC50
# Vero [6] = assay: Cytotoxicity against African green monkey Vero cells after 48 hrs by neutral red assay; type: cell-based; details: chlorocebus sabaeus
# Plasmodium falciparum [7] = assay: Potency index, ratio of chloroquine IC50 to compound IC50 for antimalarial activity against chloroquine-resistant Plasmodium falciparum W2 infected in RBC; type: functional
# [8] = Binding affinity to hemin assessed as 1:1 stoichiometry for compound-hemin complex up to 12 uM at pH 5.6 by Job's plot analysis
# mu-oxodimeric heme = assay: Binding affinity to mu-oxodimeric heme assessed as 1:1 up to 20 uM at pH 5.8 by titration method
# [9] = Binding affinity to hemin assessed as 1:1 stoichiometry for compound-hemin complex up to 12 uM at pH 7.4 by Job's plot analysis
SMILES,selectivity ratio [1],Activity (Vero [2]),IC50 (Plasmodium falciparum [3]) [nM],IC50 (Plasmodium falciparum [4]) [nM],selectivity ratio [5],IC50 (Vero [6]) [nM],Ratio IC50 (Plasmodium falciparum [7]),Activity [8] [molar ratio],Activity (mu-oxodimeric heme),Activity [9] [molar ratio]
Cc1cc(N2CCCC2)nc(N(CCCNc2ccnc3cc(Cl)ccc23)Cc2cccs2)n1,> 24,Non-Toxic,35.9,40.1,> 26.8,–,–,–,–,–
Cc1cc(Cl)nc(N(CCCNc2ccnc3cc(Cl)ccc23)Cc2ccccn2)n1,> 13,Non-Toxic,1660,804,> 6.3,–,–,–,–,–
CCN1CCN(c2nc(C)cc(N(CCCNc3ccnc4cc(Cl)ccc34)Cc3ccccn3)n2)CC1,> 66,Non-Toxic,28,137,> 321,–,–,–,–,–
Cc1cc(N2CCCCC2)nc(N(CCCNc2ccnc3cc(Cl)ccc23)Cc2cccs2)n1,38.9,–,44.6,185,161,7200,–,–,–,–
Cc1cc(N2CCCCC2)nc(N(CCCNc2ccnc3cc(Cl)ccc23)Cc2ccccn2)n1,> 10,Non-Toxic,1190,945,> 7.9,–,–,–,–,–
Cc1cc(N2CCOCC2)nc(N(CCCNc2ccnc3cc(Cl)ccc23)Cc2ccccn2)n1,> 28.3,Non-Toxic,1140,334,> 8.3,–,–,–,–,–
Cc1cc(N2CCCCC2)nc(N(CCNc2ccnc3cc(Cl)ccc23)Cc2ccccn2)n1,> 6.8,Non-Toxic,252,1440,> 38.6,–,–,–,–,–
Cc1cc(N2CCN(C)CC2)nc(N(CCCNc2ccnc3cc(Cl)ccc23)Cc2ccccn2)n1,> 48.5,Non-Toxic,551,189,> 16.7,–,–,–,–,–
Cc1cc(N(CCCNc2ccnc3cc(Cl)ccc23)Cc2ccccn2)nc(N2CCN(C)CC2)n1,> 37.8,Non-Toxic,426,243,> 21.6,–,–,–,–,–
C[C@@H]1CC[C@H]2[C@@H](C)C(=O)O[C@@H]3O[C@@]4(C)CC[C@@H]1[C@]32OO4 [ARTEMISININ],> 52,Non-Toxic,17.1,16.2,> 49.2,–,–,–,–,–
Cc1cc(N(CCCNc2ccnc3cc(Cl)ccc23)Cc2ccccn2)nc(N2CCCCC2)n1,> 11.6,Non-Toxic,93,819,> 102,–,–,–,–,–
Cc1cc(N(CCCNc2ccnc3cc(Cl)ccc23)Cc2cccs2)nc(N2CCOCC2)n1,22.7,–,55.2,409,168,9300,–,–,–,–
Cc1cc(Cl)nc(N(CCCNc2ccnc3cc(Cl)ccc23)Cc2cccs2)n1,> 22.5,Non-Toxic,119,462,> 87.2,–,–,–,–,–
Cc1cc(N2CCCC2)nc(N(CCNc2ccnc3cc(Cl)ccc23)Cc2ccccn2)n1,> 11.7,Non-Toxic,140,855,> 71.7,–,–,–,–,–
Cc1cc(N(CCCNc2ccnc3cc(Cl)ccc23)Cc2ccccn2)nc(Cl)n1,> 33.5,Non-Toxic,1390,319,> 7.6,–,–,–,–,–
Cc1cc(N(CCNc2ccnc3cc(Cl)ccc23)Cc2ccccn2)nc(Cl)n1,> 22,Non-Toxic,233,492,> 46.6,–,–,–,–,–
CCN(CC)CCCC(C)Nc1ccnc2cc(Cl)ccc12 (stereo unspecified) [CHLOROQUINE],–,Non-Toxic,–,–,–,–,–,–,–,–
Cc1cc(N(CCCNc2ccnc3cc(Cl)ccc23)Cc2cccs2)nc(N2CCN(C)CC2)n1,> 23.5,Non-Toxic,37,38.7,> 24.6,–,–,–,–,–
CCN1CCN(c2cc(C)nc(N(CCCNc3ccnc4cc(Cl)ccc34)Cc3cccs3)n2)CC1,> 46.8,Non-Toxic,32.8,18.9,> 27,–,22,–,–,–

SMILES,selectivity ratio [1],Activity (Vero [2]),IC50 (Plasmodium falciparum [3]) [nM],IC50 (Plasmodium falciparum [4]) [nM],selectivity ratio [5],IC50 (Vero [6]) [nM],Ratio IC50 (Plasmodium falciparum [7]),Activity [8] [molar ratio],Activity (mu-oxodimeric heme),Activity [9] [molar ratio]
Cc1cc(N(CCNc2ccnc3cc(Cl)ccc23)Cc2ccccn2)nc(N2CCCCC2)n1,> 19.7,Non-Toxic,65,494,> 151,–,–,–,–,–
CCN1CCN(c2nc(C)cc(N(CCCNc3ccnc4cc(Cl)ccc34)Cc3cccs3)n2)CC1,> 28.4,Non-Toxic,35.8,31.2,> 24.8,–,–,–,–,–
Clc1ccc2c(NCCCNCc3cccs3)ccnc2c1,> 19.1,Non-Toxic,424,75.1,> 33.8,–,–,–,–,–
Cc1cc(N(CCNc2ccnc3cc(Cl)ccc23)Cc2ccccn2)nc(N2CCCC2)n1,> 70,Non-Toxic,30,143,> 331,–,–,–,–,–
CCN1CCN(c2cc(C)nc(N(CCNc3ccnc4cc(Cl)ccc34)Cc3ccccn3)n2)CC1,> 273,Non-Toxic,34,39,> 270,–,–,–,–,–
Cc1cc(N(CCCNc2ccnc3cc(Cl)ccc23)Cc2cccs2)nc(N2CCCC2)n1,> 47.7,Non-Toxic,42,202,> 229,–,–,–,–,–
Cc1cc(N2CCCC2)nc(N(CCCNc2ccnc3cc(Cl)ccc23)Cc2ccccn2)n1,> 25.1,Non-Toxic,1040,389,> 9.4,–,–,–,–,–
CCN1CCN(c2nc(C)cc(N(CCNc3ccnc4cc(Cl)ccc34)Cc3ccccn3)n2)CC1,> 98,Non-Toxic,28,93,> 326,–,–,–,–,–
Cc1cc(N(CCCNc2ccnc3cc(Cl)ccc23)Cc2cccs2)nc(N2CCCCC2)n1,38.9,–,83.7,235,109,9150,–,–,–,–
Cc1cc(N(CCCNc2ccnc3cc(Cl)ccc23)Cc2cccs2)nc(Cl)n1,> 17.1,Non-Toxic,246,606,> 42.2,–,–,–,–,–
Cc1cc(Cl)nc(N(CCNc2ccnc3cc(Cl)ccc23)Cc2ccccn2)n1,8.5,–,369,1010,23.2,–,–,–,–,–
Cc1cc(N(CCCNc2ccnc3cc(Cl)ccc23)Cc2ccccn2)nc(N2CCCC2)n1,> 69,Non-Toxic,36,140,> 274,–,–,–,–,–
Cc1cc(N2CCN(C)CC2)nc(N(CCNc2ccnc3cc(Cl)ccc23)Cc2ccccn2)n1,> 68,Non-Toxic,40,139,> 238,–,–,–,–,–
Cc1cc(N2CCOCC2)nc(N(CCNc2ccnc3cc(Cl)ccc23)Cc2ccccn2)n1,> 39.1,Non-Toxic,311,248,> 31.2,–,–,–,–,–
Cc1cc(N2CCN(C)CC2)nc(N(CCCNc2ccnc3cc(Cl)ccc23)Cc2cccs2)n1,> 45.8,Non-Toxic,38.9,19.9,> 23.4,–,–,–,–,–
Cc1cc(N2CCOCC2)nc(N(CCCNc2ccnc3cc(Cl)ccc23)Cc2cccs2)n1,> 17.2,Non-Toxic,55.8,542,> 167,–,–,–,–,–
Cc1cc(N(CCNc2ccnc3cc(Cl)ccc23)Cc2ccccn2)nc(N2CCOCC2)n1,> 18.5,Non-Toxic,152,526,> 64.2,–,–,–,–,–
Cc1cc(N(CCCNc2ccnc3cc(Cl)ccc23)Cc2ccccn2)nc(N2CCOCC2)n1,> 18.5,Non-Toxic,114,511,> 82.5,–,–,–,–,–
Cc1cc(N(CCNc2ccnc3cc(Cl)ccc23)Cc2ccccn2)nc(N2CCN(C)CC2)n1,–,Non-Toxic,–,142,–,–,–,0.5,Active,0.5
